In brackets after ≈: the same amount, converted by molar mass. Read-outs that look alike come from different tables or passages of the source. Marks after values point to notes of the source that are not given here. Bridge positions count the residues as written; N and C are the ends. Square brackets hold non-standard residues; d marks the D form. Ends that are not written are not given here. Peptide text beside a SMILES is read from it. βAla = NCCC(=O)O
Tests used:
[1] = test system: Acinetobacter baumannii, clinical isolate from SGUL; assay type: cell-based; details: triplicate, modal value
Method: (§1) The following strains were used in this study: Escherichia coli, ATCC 25922, Staphylococcus aureus, epidemic methicillin-resistant EMRSA-15, Klebsiella pneumoniae, clinical isolate from St George’s, University of London (SGUL, London, UK), Acinetobacter baumannii, clinical isolate from SGUL, Pseudomonas aeruginosa, PA01 wildtype strain, and Enterococcus faecalis, vancomycin-resistant ATCC 51299.
(§2) The minimal inhibitory concentration (MIC) was determined in a microdilution assay using Mueller–Hinton (MH) or Brain Heart Infusion Broth (BHI) broth following a previously published protocol. Briefly, a twofold serial dilution of the antibiotics and peptides were prepared and added to a bacteria solution, resulting in 2–5 10^5 CFU/mL. The microtiter plates (polypropylene, Corning, Corning, NY, USA) were incubated for 18 h at 37 °C and MICs were taken visually. Based on our experience with proline rich peptides, their low activity in Mueller–Hinton broth, and their strong activity in diluted broth, we decided to also measure the activity of the peptide set in a 1/5 dilution of the broth. MICs in the presence of serum were established using human serum (Zen-Bio, Durham, NC, USA) and heat-inactivated serum (Sigma-Aldrich, St. Louis, MO, USA). A total of 20% (v/v) of each human serum was mixed with bacterial solution and added to predetermined concentrations of antibiotics and peptides, resulting in a final 10% (v/v) concentration of serum and 2–5 × 10^5 bacteria.

[2] = test system: Enterococcus faecalis, vancomycin-resistant ATCC 51299; assay type: cell-based
Method: as §1, §2

[3] = test system: Escherichia coli, ATCC 25922; assay type: cell-based; details: triplicate, modal value
Method: as §1, §2

[4] = test system: Klebsiella pneumoniae, clinical isolate from St George's, University of London; assay type: cell-based
Method: as §1, §2

[5] = test system: Pseudomonas aeruginosa, PA01 wildtype strain; assay type: cell-based; details: triplicate, modal value
Method: as §1, §2

[6] = test system: Staphylococcus aureus, epidemic methicillin-resistant EMRSA-15; assay type: cell-based; details: triplicate, modal value
Method: as §1, §2

Serum stability assay = assay type: in vitro ADME, human; details: 37 °C, UPLC-MS; for half-life at 100 μM: 100% human serum (Sigma-Aldrich, human male AB plasma), 100 μM peptide, 0-24 h, TFA precipitation, triplicates; for Peptide state after one hour in human serum: 100% human serum, 100 μM, 1 h
Method: (§3) Serum stability assays were performed in 100% human serum (Sigma-Aldrich, St. Louis MO, USA, human male AB plasma). Serum was centrifuged to remove lipids and incubated with the peptides at 100 μM for 0, 0.5, 1, 3, 6, and 24 h at 37 °C. Serum proteins were precipitated by adding 3 μL of TFA to 40 μL of peptide – serum sample (final TFA 7%). The remaining supernatant was diluted with 50:50 solvent A/B. The amount of peptide remaining (%) was quantified by UPLC-MS analysis. For pH stability experiments, peptides were incubated at a concentration of 20 μM at pH 1.2 and 7.5 for 24 h, and stability was monitored by UPLC analysis.

pH stability = assay type: physicochemical; details: 20 μM, pH 1.2 and 7.5, 24 h, UPLC
Method: as §3

E. coli = details: cited from earlier work
Source text: (§4) Several naturally occurring cyclotide sequences have been proposed to have antimicrobial activity. However, the cyclotides tested in that study were synthetically made and had rather weak activity against a range of common pathogenic bacteria, including Escherichia coli and Staphylococcus aureus, but were only active in low salt media, losing all activity under physiological conditions. A number of other studies have also reported antibacterial activity for some natural cyclotides or synthetic derivatives of them. For example, fractions comprised of cyclotid ...

[7] = test system: S. enterica serovar Typhimurium LT2; details: cited from earlier work
Source text: as §4

Staphylococcus aureus = details: cited from earlier work
Source text: as §4

[8] = 1/5 MH + 10% heat inactivated human serum

## CC[C@H](C)[C@@H]1NC(=O)[C@H](Cc2c[nH]c3ccccc23)NC(=O)[C@H](CCCNC(=N)N)NC(=O)[C@H](C(C)C)NC(=O)[C@H](CCCNC(=N)N)NC(=O)[C@H](CCCNC(=N)N)NC(=O)[C@H](CCCCN)NC(=O)CCNC(=O)CCNC(=O)[C@@H](N)CSSC[C@@H](C(=O)O)NC(=O)CCNC(=O)CCNC(=O)[C@H](Cc2c[nH]c3ccccc23)NC(=O)[C@H]([C@@H](C)CC)NC1=O [c-optP7] (H-C[βAla][βAla]KRRVRWIIW[βAla][βAla]C-OH; disulfide 1-15)
[1]; 1/5 MH + 10% human serum
  MIC: 71 µM
[1]; 1/5 MH
  MIC: 4 µM (≈ 7.2 µg/mL)
[2]; 1/5 BHI + 10% human serum, triplicate, modal value
  MIC: >142 µM
[2]; 1/5 BHI, triplicate, modal value
  MIC: 18 µM (≈ 32.4 µg/mL)
[2]; BHI, single measurement (asterisk)
  MIC: >142 * µM
[3]; [8]
  MIC: 35 µM
[3]; 1/5 MH + 10% human serum
  MIC: 18 µM
[3]; 1/5 MH
  MIC: 4 to 9 µM
[3]; MH + 10% human serum
  MIC: >142 µM
[3]; MH
  MIC: 71 µM (≈ 128 µg/mL)
[4]; 1/5 MH + 10% human serum, triplicate, modal value
  MIC: 142 µM
[4]; 1/5 MH, triplicate, modal value
  MIC: 71 µM (≈ 128 µg/mL)
[4]; MH, single measurement (asterisk)
  MIC: >142 * µM
[5]; 1/5 MH + 10% human serum
  MIC: 35 µM
[5]; 1/5 MH
  MIC: 9 µM (≈ 16.2 µg/mL)
[5]; MH + 10% human serum
  MIC: >142 µM
[5]; MH, microdilution, 18 h 37 °C, visual
  MIC: 142 µM (≈ 256 µg/mL)
[6]; [8]
  MIC: >142 µM
[6]; 1/5 MH + 10% human serum
  MIC: >142 µM
[6]; 1/5 MH
  MIC: 18 µM (≈ 32.4 µg/mL)
[6]; MH + 10% human serum
  MIC: >142 µM
[6]; MH
  MIC: 142 µM (≈ 256 µg/mL)
Serum stability assay
  half-life at 100 μM: 9 min
  Peptide state after one hour in human serum: fully degraded
pH stability
  pH stability: exceptional stability over 24 h

## KRRVRWIIW-NH2 [optP7]
[2]; ATCC 51299, 18 h
  MIC: 0.8 µM
[4]; clinical isolate from St George's, University of London, 18 h
  MIC: 1.5 µM
[6]; [8]
  MIC: 6 µM
[6]; 1/5 MH + 10% human serum
  MIC: 6 µM
[6]; 1/5 MH
  MIC: 1.5 µM
[6]; MH + 10% human serum
  MIC: 49 µM
[6]; MH
  MIC: 6 µM
Serum stability assay
  half-life at 100 μM: 13 min
  Peptide state after one hour in human serum: fully degraded
pH stability
  pH stability: exceptional stability over 24 h

## cycloviolacin O2
E. coli
  MIC: 2 µM
[7]
  MIC: ~9 µM
Staphylococcus aureus
  MIC: > 50 µM

Reference: publication PMC8228819, “Comparison of a Short Linear Antimicrobial Peptide with Its Disulfide-Cyclized and Cyclotide-Grafted Variants against Clinically Relevant Pathogens” (Microorganisms, 2021)
